In patent US20080003632A1, “Method for the In Vitro Determination of Cellular Uptake of Exogenous and Endogenous Substances Using Nmr Shift Agents and the Magic Angle Nmr Technique” (Bracco Imaging SpA, priority 2004, published 2008):

Tested on: HRBC (Human Red Blood Cells)
Assay: Cellular uptake of acetylsalicylic acid in red blood cells by 1H HR-MAS NMR with shift agent Dy-BOPTA
Format: in vitro ADME
Description: Determination of Cellular Uptake of Acetylsalicylic Acid in Red Blood Cells
In this example, EXO=Acetylsalicylic acid; SA=Dy-BOPTA (Dy is the symbol of Dysprosium, one of the lanthanides known as shift agent).
The nucleus used to determine Acetylsalicylic acid cellular uptake is the proton.
The in vitro determination has been preformed on HRBC obtained by human blood treated as described below.
Centrifugation: the employed centrifuge was HERAEUS SEPATECH OMNIFUGE 2 ORS, rotor model 3360. Centrifugation was done at 2109 g (equivalent to 3500 rpm) at 4° C. for 15 minutes.
Living HRBC preparation: human blood (to which sodium citrate has been added as an anticoagulant) was centrifuged. After that, HRBC pellets were separated from serum and white cell interface, carefully obtaining a solution of red cells free of white cells; accordingly, red cells with 80% hematocrit were obtained.
Dy-BOPTA stock solution: a 0.1 M stock solution of Dy-BOPTA was used in all of the measurement to obtain the suitable [SA].
Acetylsalicylic acid stock solution: a 1 M stock solution of ASA containing 0.1 M of DSS (as internal standard for quantitative determination), was used in all of the measurements.
The solution was prepared by dissolving 180.16 mg of ASA and 23.63 mg of DSS in 200 ul of H2O, adding NaOH 2N until dissolution, lowering, if necessary, the pH to 7 with HCl 1N, then filling the volume to 1 ml. In this way two forms of ASA are generated that are below indicated as A and B.
Acetylsalicylic acid in HRBC: a sample containing 1 ml of HRBC (80% hematocrit), 100 μmoles of acetylsalicylic acid (i.e. 100 μl of acetylsalicylic acid stock solution) and 8 μmoles of Dy-BOPTA (i.e. 80 μl of Dy-BOPTA stock solution) was employed to measure the uptake of acetylsalicylic acid in HRBC.
Proton ^1H NMR spectra: all the ^1H NMR spectra have been acquired on a Bruker AMX 600 SB spectrometer at the frequency of 600.13 MHz. A multinuclear HR-MAS probehead with double bearing and 4 mm rotor with 12 μl spherical insert have been employed. Experimental conditions were: sample rotating speed=3500 Hz; spectra width=12,000 Hz (c.a. 20 ppm); time domain data points=128 K; number of scans=16; pulse length=11.7 μs; recycle delay=10 s; CPMG sequence; Fourier Transform by 0.5 Hz of enhancement multiplication function, sample temperature=25° C.
Proton spectra have been employed to determine acetylsalicylic acid cellular uptake, because ^1H is the sole nucleus present in acetylsalicylic acid having a high NMR sensitivity. […] Both of the two signals are marker^EXO signals.
The measurement of cellular uptake of acetylsalicylic acid by HRBC was calculated from the spectra reported in the enclosed FIG. 7.
Firstly, the ^1H NMR-MAS spectrum of HRBC was acquired (FIG. 7—trace a) in the absence of either acetylsalicylic acid (EXO) or of Dy-BOPTA (SA).
Then, 100 μl of acetylsalicylic acid 1M stock solution were added and the spectrum repeated (FIG. 7—trace b). In spectrum of trace b the two components for each signal A and B of the methyl group of acetylsalicylic acid were well visible, i.e. four peaks exist in the proton MAS-NMR spectrum. The splitting of signals A and B induces to suppose that the molecules of acetylsalicylic acid in the extra- and intra-cellular compartments are in magnetically different environments, i.e. the four observed signals corresponded to signals A e B into intra- and extra-cellular compartments, respectively.
Lastly, 80 μl of Dy-BOPTA stock solution were also added to the sample and the spectrum were again re-acquired (FIG. 7—trace c). […] Two components resulted unshifted with respect to the original marker^EXO signals while the other two components were shifted.
Acetylsalicylic acid corresponding to the unshifted marker^EXO signals is ACETYLSALICYLIC ACIDCC≠SA, i.e. acetylsalicylic acid in the intra-cellular compartment. […]

**Q.** Which results are given for CC(=O)Oc1ccccc1C(=O)O [acetylsalicylic acid]?
**A.** % of cellular uptake of acetylsalicylic acid A (form A, HRBC): 3.04%; concentration of acetylsalicylic acid o (A) (form A, extracellular fluid volume 0.38 ml): 154100 µM; μmoles acetylsalicylic acid o (A), amount in extra-cellular compartment (form A, extracellular, 1 ml HRBC 80% hematocrit, 100 μmoles ASA added, 8 μmoles Dy-BOPTA, 25° C.): 58.56 µmol; concentration of acetylsalicylic acid i (A) (form A, intracellular fluid volume 0.8 ml): 4830 µM; μmoles acetylsalicylic acid i (A), amount in intra-cellular compartment (form A, intracellular, 1 ml HRBC 80% hematocrit, 100 μmoles ASA added, 8 μmoles Dy-BOPTA, 25° C.): 3.87 µmol; [acetylsalicylic acid]o/[acetylsalicylic acid]i (A) (form A, ratio of extra- to intra-cellular concentration): 31.90; % of cellular uptake of acetylsalicylic acid B (form B, HRBC): 10.40%; concentration of acetylsalicylic acid o (B) (form B, extracellular fluid volume 0.38 ml): 79440 µM; μmoles acetylsalicylic acid o (B), amount in extra-cellular compartment (form B, extracellular, 1 ml HRBC 80% hematocrit, 100 μmoles ASA added, 8 μmoles Dy-BOPTA, 25° C.): 30.19 µmol; concentration of acetylsalicylic acid i (B) (form B, intracellular fluid volume 0.8 ml): 9220 µM; μmoles acetylsalicylic acid i (B), amount in intra-cellular compartment (form B, intracellular, 1 ml HRBC 80% hematocrit, 100 μmoles ASA added, 8 μmoles Dy-BOPTA, 25° C.): 7.38 µmol; [acetylsalicylic acid]o/[acetylsalicylic acid]i (B) (form B, ratio 79.44/9.22 of extra- to intra-cellular concentration): 8.61; % of cellular uptake of total acetylsalicylic acid (forms A + B, HRBC): 5.67%
